Source: patent publication EP4458352A1, “EICOSAPENTAENOIC ACID ESTER DERIVATIVES FOR THE TREATMENT OF OBESITY” (Technische Universität Dresden, priority 2023, dated 2024)

What was measured:
[1] = test system: adrenal cortex; assay: RNA-Seq and GSEA of the adrenal cortex of HFD mice with or without icosapent ethyl; format: in vivo, WT C57BL/6J mice; conditions: HFD with icosapent ethyl versus HFD without; n=4 mice per group
Experimental: Six weeks-old male WT C57BL/6J mice were fed for 20 weeks a LFD (D12450B, Research Diets, NJ, USA) or a HFD (D12492, Research Diets, NJ, USA). In some experiments, WT C57BL/6J mice were fed for 8 weeks a HFD and for another 8 weeks a HFD supplemented with SC-26196 (Biorbyt Ltd). SC-26196 was mixed in the HFD at a concentration of 625 mg/kg of diet corresponding to approx. 100 mg/kg of animal weight. In other experiments WT mice were fed for 10 weeks a HFD and for another 10 weeks a HFD supplemented with icosapent ethyl (Vascepa). […]
For transcriptome mapping, strand-specific paired-end sequencing libraries from total RNA were constructed using TruSeq stranded Total RNA kit (Illumina Inc). […] Low quality nucleotides were removed with the Illumina fastq filter and reads were further subjected to adaptor trimming using cutadapt (85). Alignment of the reads to the Mouse genome was done using STAR Aligner (86) using the parameters: "-runMode alignReads -outSAMstrandField intronMotif-outSAMtype BAM SortedByCoordinate-readFilesCommand zcat". […] The parameters: `htseq-count -f bam -s reverse -m union -a 20', HTSeq-0.6.1p1 (87) were used to count the reads that map to the genes in the aligned sample files. The GTF file (gencode.vM12.annotation.gtf) used for read quantification was downloaded from Gencode (https://www.gencodegenes.org/mouse/release_M12.html). […]

[2] = test system: primary adrenal cell cultures; assay: Steroid hormone production (LC-MS/MS) in primary adrenal cell cultures treated with SC-26196, with or without ACTH or ARA; format: cell-based, WT C57BL/6J mice
Experimental: Adrenal glands or adrenal corteces were isolated from WT C57BL/6J mice, cleaned from the surrounding fat tissue and incubated in collagenase buffer (1.6 mg/ml collagenase type I, 1.6 mg/ml BSA) for 45 min at 37 °C, while shaking at 900 rpm. Dissociated cells were passed through 22 G needle and a 100 µm cell strainer and centrifuged at 300 × g for 5 min at 4 °C. Cells of a pool from two adrenals of each mouse were distributed in four 0.2 % gelatin-precoated wells of a 96-well plate in DMEM/F12 supplemented with 1 % FBS, 50 U/mL penicillin and 50 µg/mL streptomycin. Two hours after seeding 10 µM SC-26196 (Tocris, Wiesbaden-Nordenstadt, Germany) or same amount of carrier (DMSO) were added without changing the medium. In some experiments medium was additionally supplemented with 150 µM ARA (Sigma Aldrich, Germany) or same amount of solvent (endotoxin-free water). When induction of steroidogenesis was required, the medium was changed 18 h after treatment and the cells were incubated with or without 10 ng/mL ACTH for 60 min in the presence of either 10 µM SC-26196 or DMSO. Supernatants were kept for steroid hormone measurement and cell lysates were collected for transcriptional analysis. In some experiments, primary CD31-CD45- adrenocortical cells were treated or not for 18 h with 66 µM EPA (Sigma-Aldrich). Steroid hormones in plasma and cell culture supernatants were analyzed by LC-MS/MS as previously described (71). Fifty to hundred µL plasma or cell culture supernatants were extracted by solid phase extraction using positive pressure, followed by a dry-down under gentle stream of nitrogen. Residues were reconstituted in 100 µL of the initial LC mobile phase and 10 µL were injected for detection by the triple quadrupole mass spectrometer in multiple reaction-monitoring scan mode using positive electrospray ionization. Quantification of steroid concentrations was done by comparisons of ratios of analyte peak areas to respective peak areas of stable isotope labeled internal standards obtained in samples to those of calibrators.

[3] = ARA 150 µM with SC-26196 10 µM, 18 h, n=6-8

| Compound | genes being down-regulated in the adrenal cortex (RNA-Seq) [1] | genes being up-regulated in the adrenal cortex (RNA-Seq) [1] | 11-deoxycorticosterone production in cells treated with SC-26196 [2, 3] | corticosterone production in cells treated with SC-26196 [2, 3] | progesterone production in cells treated with SC-26196 [2, 3] | steroidogenesis in adrenocortical cells ([2]; ARA supplementation (150 µM)) |
| --- | --- | --- | --- | --- | --- | --- |
| CC/C=C\C/C=C\C/C=C\C/C=C\C/C=C\CCCC(=O)OCC [icosapent ethyl, eicosapentaenoic acid ethyl ester] | 162 | 266 |  |  |  |  |
| CCCCC/C=C\C/C=C\C/C=C\C/C=C\CCCC(=O)O [ARA, all-cis-5,8,11,14-eicosatetraenoic acid] |  |  | partially restored | partially restored | partially restored | increased steroidogenesis |
